Test results from patent US20240252456A1, “ORAL COMPOSITION, SKIN COSMETIC AND HAIR COSMETIC” (MARUZEN PHARMACEUTICALS CO., LTD., priority 2021, published 2024).

Key:
[1] = target: T1, DPP IV (rhCD26) (Homo sapiens, UniProt P27487); experiment: DPP IV activity inhibitory action test; assay type: biochemical; settings: read-out: DPP IV activity inhibition rate; for inhibition at 2500 µM: 2500 μmol/L; for inhibition at 10000 µM: 10000 μmol/L
T1 construct: purchased R&D Systems
Experimental: In a 96-well plate, 25 μL of each of test samples (Samples 1 to 3, see Table 3 below for final concentrations) prepared with 25 mM Tris-HCl buffer solution (pH 8.0) and 25 μL of 0.4 μg/mL DPP IV (available from R&D Systems, rhCD26) solution prepared with the above buffer solution were mixed and preincubated at 37° C. for 5 minutes. After that, 50 μL of 0.5 mM Gly-Pro-p-NA-Tos (available from PEPTIDE […], INC.) prepared with the above buffer solution was added, and the mixture was reacted at 37° C. for 90 minutes. After the reaction was completed, the absorbance at a wavelength of 415 nm was measured. From the obtained results, the DPP IV activity inhibition rate (%) was calculated using the following equation.
(§1) Terms in the equation represent the following respective ones. • A: Absorbance at wavelength 415 nm without sample addition and with enzyme addition • B: Absorbance at wavelength 415 nm without sample addition and without enzyme addition • C: Absorbance at wavelength 415 nm with test sample addition and with enzyme addition • D: Absorbance at wavelength 415 nm with test sample addition and without enzyme addition

[2] = system: Normal human dermal fibroblasts (NB1RGB); experiment: Glutathione production promotive action test (dermal fibroblasts); assay type: cell-based; settings: 24 hours
Experimental: Normal human dermal fibroblasts (NB1RGB) were cultured using α-modified Eagle's minimum essential medium (α-MEM) containing 10% FBS, and then the cells were collected by a trypsin treatment. The collected cells were diluted with α-MEM containing 10% FBS to a cell density of 2.0×10^5 cells/mL, then seeded with 200 μL per well in a 48-well plate, and cultured for 48 hours.
After culturing, the medium was removed, 200 μL of each of test samples (Samples 1 to 3, see Table 14 below for final concentrations) dissolved in Dulbecco's modified Eagle's medium (DMEM) containing 1% FBS was added to each well, and culturing was further performed for 24 hours. As a control, culturing was performed in the same manner using DMEM containing 1% FBS to which no test sample was added. After the culturing was completed, the medium was removed from each well, and the cells were washed with 400 μL of PBS(−) buffer solution and then lysed using 150 μL of M-PER (available from PIERCE).
Quantitative determination of total glutathione was performed using 100 μL of the lysed cells. That is, 100 μL of lysed cell extract, 50 μL of 0.1 mol/L phosphate buffer solution, 25 μL of 2 mmol/L NADPH, and 25 μL of 3.2 unit/mL glutathione reductase were added to a 96-well plate and heated at 37° C. for 10 minutes, then 25 μL of 10 mmol/L 5,5′-dithiobis(2-nitrobenzoic acid) was added, and the absorbance at a wavelength of 412 nm was measured until 5 minutes later to determine ΔOD/min. The total glutathione concentration was calculated based on a calibration curve created using oxidized glutathione (available from FUJIFILM Wako Pure Chemical Corporation). After correcting the obtained value to the glutathione value per total protein amount, the glutathione production promotion rate (%) was calculated using the following equation.
Terms in the equation represent the following respective ones. • A: Glutathione amount per total protein amount without sample addition • B: Glutathione amount per total protein amount with test sample addition

[3] = target: T2, hyaluronidase (Type IV-S) (Bos taurus, UniProt Q2YDK3); experiment: Hyaluronidase activity inhibitory action test; assay type: biochemical, bovine; settings: read-out: Hyaluronidase activity inhibition rate; for inhibition at 250 µM: 250 μmol/L; for inhibition at 1000 µM: 1000 μmol/L
T2 construct: purchased SIGMA Type IV-S; host or cells: bovine testes
T2 sequence (Q2YDK3 36-553): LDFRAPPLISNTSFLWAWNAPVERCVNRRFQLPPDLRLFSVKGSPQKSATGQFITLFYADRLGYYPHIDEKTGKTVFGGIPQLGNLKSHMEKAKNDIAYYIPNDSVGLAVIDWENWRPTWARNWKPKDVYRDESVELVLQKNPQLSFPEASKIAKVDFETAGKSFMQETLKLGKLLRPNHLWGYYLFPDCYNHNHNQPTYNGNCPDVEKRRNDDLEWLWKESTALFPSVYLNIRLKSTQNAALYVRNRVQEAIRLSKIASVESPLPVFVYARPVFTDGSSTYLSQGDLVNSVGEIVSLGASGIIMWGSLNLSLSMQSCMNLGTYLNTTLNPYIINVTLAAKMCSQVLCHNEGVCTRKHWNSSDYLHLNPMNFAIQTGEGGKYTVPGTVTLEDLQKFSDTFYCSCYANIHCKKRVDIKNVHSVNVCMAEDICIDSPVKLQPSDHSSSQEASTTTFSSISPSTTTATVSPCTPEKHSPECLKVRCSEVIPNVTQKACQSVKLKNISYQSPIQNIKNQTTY
Experimental: To 0.2 mL of each of test samples (Samples 1 to 3, see Table 27 below for final concentrations) dissolved in 0.1 mol/L acetate buffer solution (pH 3.5), 0.1 mL of hyaluronidase solution (available from SIGMA, Type IV-S, from bovine tests, 400 NF units/mL) was added, and the mixture was statically placed at 37° C. for 20 minutes. Furthermore, 0.2 mL of 2.5 mmol/L calcium chloride was added as an activator, and the mixture was statically placed at 37° C. for 20 minutes. To this was added 0.5 mL of 0.8 mg/mL sodium hyaluronate solution (from rooster comb), and the mixture was reacted at 37° C. for 40 minutes. After that, 0.2 mL of 0.4 mol/L sodium hydroxide was added to stop the reaction, it was cooled, and then 0.2 mL of boric acid solution was added to each reaction solution, which was boiled for 3 minutes. After cooling on ice, 6 mL of p-DABA reagent was added and reacted at 37° C. for 20 minutes. After that, the absorbance at a wavelength of 585 nm was measured.
In addition, as a blank, the same operation and absorbance measurement were performed in the case in which no enzyme solution was added. Furthermore, as a control, the same measurement was performed in the case in which distilled water was added without adding the sample solution. From the obtained results, the hyaluronidase activity inhibition rate (%) was calculated using the following equation.
as §1, with “wavelength 585” for “wavelength 415”, “nm with test” for “nm without”, “nm without” for “nm with test”

T1 sequence (P27487 whole entry): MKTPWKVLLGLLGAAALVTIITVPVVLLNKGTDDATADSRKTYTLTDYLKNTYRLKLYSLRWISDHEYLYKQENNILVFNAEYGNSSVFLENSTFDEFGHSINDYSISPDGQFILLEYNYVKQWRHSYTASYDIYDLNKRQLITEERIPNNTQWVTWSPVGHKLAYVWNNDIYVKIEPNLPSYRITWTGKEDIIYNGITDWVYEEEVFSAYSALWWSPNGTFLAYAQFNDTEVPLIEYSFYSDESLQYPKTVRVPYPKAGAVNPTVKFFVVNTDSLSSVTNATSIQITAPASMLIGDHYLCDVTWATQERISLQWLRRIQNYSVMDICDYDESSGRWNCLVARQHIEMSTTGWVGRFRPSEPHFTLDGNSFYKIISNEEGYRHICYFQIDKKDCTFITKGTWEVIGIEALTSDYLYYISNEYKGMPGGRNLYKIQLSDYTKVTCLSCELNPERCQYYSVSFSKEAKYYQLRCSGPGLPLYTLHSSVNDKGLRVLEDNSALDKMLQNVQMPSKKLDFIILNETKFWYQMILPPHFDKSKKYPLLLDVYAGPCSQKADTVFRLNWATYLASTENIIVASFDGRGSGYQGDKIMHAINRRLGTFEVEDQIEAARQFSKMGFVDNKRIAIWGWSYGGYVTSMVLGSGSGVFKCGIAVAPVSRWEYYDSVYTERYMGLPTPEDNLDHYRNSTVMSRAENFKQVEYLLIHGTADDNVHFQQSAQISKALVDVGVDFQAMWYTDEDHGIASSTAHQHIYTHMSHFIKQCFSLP

| Structure (SMILES) | inhibition at 625 µM ([1]; 625 μmol/L) | inhibition at 2500 µM [1] | inhibition at 10000 µM [1] | Glutathione production promotion rate ([2]; 62.5 μmol/L) | inhibition at 250 µM [3] | inhibition at 1000 µM [3] | Glutathione production promotion rate ([2]; 1000 μmol/L) | inhibition at 62.5 µM ([3]; 62.5 μmol/L) |
| --- | --- | --- | --- | --- | --- | --- | --- | --- |
| O=C(O)CCc1ccc(O)c(O)c1 [Sample 1, 3,4-Dihydroxyhydrocinnamic acid] | 7.2% | 17.6% | 97.1% | 125.8% | 4.9% | 19.9% |  |  |
| O=C(O)CCc1ccc(O)cc1 [Sample 2, 3-(4-Hydroxyphenyl)propionic acid] |  |  | 96.9% |  |  | 15.8% | 131.7% |  |
| O=C(O)CCc1ccccc1 [Sample 3, 3-phenylpropionic acid] |  | 4.1% | 99.8% |  | 20.2% | 41.1% | 129.9% | 16.5% |
